# US4837227A, “Aminoalkylthiodibenzoxepins and pharmaceutical use” (Hoechst-Roussel Pharmaceuticals, Inc., priority 1985, dated 1989)
# Counter-ions that a name gives are not always drawn. Like-named read-outs stand apart in the source and are kept apart here.
# Legend:
# tail flick in mice = experiment: modified D'Amour-Smith analgesia (tail flick) assay; type: in vivo, male mice (Charles River: CD-1); conditions: generally s.c.
# Description: Analgesic Activity Modified D'Amour-Smith Assay (Tail Flick)
# Male mice (Charles River: CD-1) from 18-30 grams were used as test subjects. The mouse tails were individually placed on a "Vee" block and, subsequently, a painful stimulus was produced by an intense light beam (Emdie Instrument Co., Louisa, VA). The subject quickly responds to the noxious stimuli by flicking its tail. The reaction time, the interval between stimulus onset and response, was automatically measured in 1/10-second increments. Prior to drug administration, two control readings of reaction time were measured for each subject with approximately 15 minutes separating the tests. Subjects were discarded if their reaction times in these control tests varied by more than one second or if their inclusion in the study group caused the spread of reaction time to exceed three seconds.
# The mean response time (x) and the standard deviation (SD) of the values were then calculated for each set of control scores. The formula presented below was used to calculate cut-off values (C.O.) for each set of control scores and the average of these C.O. values was used to determine evidence of analgesic activity in subsequent drug testing.
# The C.O. value was actually a determination of a reaction time which exceeds the mean by two standard deviations. Any reaction time, in subsequent drug tests, which was greater than the C.O. value, therefore exceeds 95% of a normal Gaussian distribution and was called a "positive response" indicative of analgesic activity. Latency changes were calculated by subtracting the tail flick latency of the average control times from the latency after treatment for each mouse.
# Compounds were tested in treatment groups of ten subjects and drugs, prepared in distilled water, were generally administered subcutaneously (s.c.) in volumes equivalent to 10 cc/kg. The initial testing was usually in the form of a time response at intervals of 15, 30, 45 and 60 minutes after dosing. If analgesic activity was still increasing at 60 minutes, then two additional groups were tested at 90 minute and 120 minute post dosing.
# A time response indicated the period of greatest analgesic effect after dosing. Percent analgesic activity was calculated in the following manner: [formula] Grp.=Group Veh.=Vehicle
# The ED50 was determined at the peak time of drug activity. A minimum of three dose groups were employed. Drugs were administered in a randomized manner. ED50 's were calculated using Litchfield-Wilcoxon (LITWL on PDP II) computer analysis.
# [1] = tested on: climbing behavior induced by apomorphine in mice; experiment: apomorphine-induced climbing mice assay (neuroleptic activity); type: in vivo, CD-1 male mice; conditions: intraperitoneally 30 minutes prior to apomorphine 1.5 mg/kg s.c.
# Protocol: Central Nervous System Depressant (Neuroleptic) Activity Climbing Mice Assay
# The subject CD-1 male mice (23-27 grams) were group-housed under standard laboratory conditions. The mice were individually placed in wire mesh stick cages (4"×4"×10") and were allowed one hour for adaptation and exploration of the new environment. Then apomorphine was injected subcutaneously at 1.5 mg/kg, a dose causing climbing in all subjects for 30 minutes. Compounds to be tested for neuroleptic activity were injected intraperitoneally 30 minutes prior to the apomorphine challenge at a screening dose of 10 mg/kg.
# For evaluation of climbing, 3 readings were taken at 10, 20 and 30 minutes after apomorphine administration according to the following scale:
# Mice consistently climbing before the injection of apomorphine were discarded.
# With full-developed apomorphine climbing, the animals were hanging onto the cage walls, rather motionless, over longer periods of time. By contrast, climbs due to mere motor stimulation usually only lasted a few seconds.
# The climbing scores were individually totaled (maximal score: 6 per mouse over 3 readings) and the total score of the control group (vehicle intraperitineally -- apomorphine subcutaneously) was set to 100%.
# [2] = M. Protvia, et al. Il Farmaco XXI, 98 (1966); cited from earlier work
# [3] = stability study, gas chromatographic assay (acid stability); type: physicochemical
# Protocol: Gas chromatographic conditions were established under which 2-fluoro-11-[β-(dimethylamino)ethoxy]dibenz[b,f]oxepin (as the hydrobromide or hydrochloride salts), 2-fluoro-11-[β-(dimethylamino)ethylthio]dibenz[b,f]oxepin (as the hydrobromide salt) and 10,11-dihydro-10-oxodibenz[b,f]oxepin were separated:
# Column-Glass 2m×2mm ID packed with 3% OV-225 on 80/100 supelcoport
# Temperature: Isothermal at 220° C.
# Flow Rate: He at 45 ml/min
# Instrument: Perkin-Elmer 3920B
# Solutions of 2-fluoro-11-[β-(dimethylamino)ethoxy]dibenz[b,f]oxepin and 2-fluoro-11-[β-(dimethylamino)ethylthio]dibenz[b,f]oxepin were prepared in water at a concentration of 200 mg/100 ml. Portions of these stock aqueous solutions were used in each of the following experiments. All aqueous samples were prepared for gas chromotographic (GC) injection by first adding sodium carbonate solution to adjust the pH to 9 and then extracting with ethyl acetate. The ethyl acetate layer was separated and 2.0μ of it were injected.
# II. Acidification of 2.0 ml of 2-fluoro-11-[β-(dimethylamino)ethoxy]dibenz[b,f]oxepin stock solution with 0.2 ml of concentrated hydrochloric acid and standing at ambient temperature produced increases in the levels of 10,11-dihydro-10-oxodibenz[b,f]oxepin beyond the 0.2% level initially contaminating the sample of 2-fluoro-11-[β-(dimethylamino)ethoxy]dibenz[b,f]oxepin.
# III. Simultaneous experiments were performed using 2.0 ml of each stock solution of […] and 2-fluoro-11-[β-(dimethylamino)ethylthio]dibenz[b,f]oxepin in individual test tubes. Acidification of each solution with 0.2 ml of concentrated hydrochloric acid and side by side warming (not reflux) for 2 minutes (electric heat gun) produced a visible change.
# [4] = tested on: supramaximal electro shock in mice; experiment: protection from supramaximal electro shock in mice (anticonvulsant); type: in vivo; conditions: Mus musculus, ip, intraperitoneal dose, read-out: ED50, approximately 50% protective from the effect of supramaximal electro shock
# Description: Compounds of the present invention are still further useful as anticonvulsant agents for mammals, as determined by the method of Woodbury, L. A. and Davenport, V. D., in Arch. Int. Pharmacodynam, Vol. 92. (1952) at pages 97 to 107. Thus, for instance, the following intraperitoneal doses at which an approximately 50% protective (ED50) from the effect of supramaximal electro shock in mice are: […]
# [5] = tested on: tetrabenazine-induced depression (ptosis) in mice; experiment: inhibition of tetrabenazine-induced depression (ptosis) in mice; type: in vivo; conditions: Mus musculus, read-out: ED50, 50% inhibition of the ptosis of the tetrabenazine-induced depression
# Description: Thus, for instance, the intraperitoneal dose at which the following compounds effect a 50% inhibition of the ptosis of the tetrabenazine-induced depression (ED50) in mice are: […]
# [6] = tested on: phenyl-p-quinone writhing in mice; experiment: phenyl-p-quinone writhing assay in mice (analgesia); type: in vivo; conditions: Mus musculus, sc, subcutaneous dose, read-out: ED50, approximately 50% inhibition of writhing
# Description: Compounds of the invention are further useful as analgesic agents due to their ability to alleviate pain in mammals. […] Exptl. Biol Med., 95 729 (1957)]. Thus for instance, the subcutaneous dose effecting an approximately 50% inhibition of writhing (ED50) in mice produced in this assay is as follows: […]
# [7] = 0.2 ml concentrated hydrochloric acid, warming (not reflux) for 2 minutes
structure (smiles),measurement,setting,value
"CNCCSC1=Cc2ccccc2Oc2ccc(F)cc21 [2-fluoro-11-[β-(methylamino)ethylthio]dibenz[b,f]oxepin]",Analgesic Activity (%),tail flick in mice; dose 11.3 mg/kg,50%
"CNCCSC1=Cc2ccccc2Oc2ccccc21 [10-[β-(methylamino)ethylthio]dibenz[b,f]oxepin]",Analgesic Activity (%),tail flick in mice; dose 11.6 mg/kg,50%
"CSc1ccc2c(c1)C(SCCN(C)C)=Cc1ccccc1O2 [11-[β-(dimethylamino)ethylthio]-2-(methylthio)dibenz[b,f]oxepin]",Activity (% Inhibition of Climbing),[1]; 10 mg/kg,18%
same,Analgesic Activity (%),tail flick in mice; dose 14.1 mg/kg,50%
CN(C)CCOC1Cc2ccccc2Sc2ccc(Cl)cc21 (centres unmarked) [Amethoclothepine],central depressant activity (in words),[2],central depressant activity
"CN(C)CCSC1=Cc2ccccc2Oc2ccc(Cl)cc21 [2-chloro-11-[β-(dimethylamino)ethylthio]dibenz[b,f]oxepin]",Activity (% Inhibition of Climbing),[1]; 10 mg/kg,5%
same,Analgesic Activity (%),tail flick in mice; dose 25 mg/kg,20%
"CN(C)CCOC1=Cc2ccccc2Oc2ccc(F)cc21 [2-fluoro-11-[β-(dimethylamino)ethoxy]dibenz[b,f]oxepin]",visible change of the acidified solution on warming,[3]; [7],became white and cloudy
same,decomposition on reflux after addition of concentrated hydrochloric acid,"[3]; 25 ml stock + 2.5 ml concentrated hydrochloric acid, further reflux 10 mins, to 10,11-dihydro-10-oxodibenz[b,f]oxepin",complete decomposition
same,decomposition on reflux of aqueous stock solution,"[3]; water, 200 mg/100 ml, reflux, 45 minutes",no apparent decomposition
same,degraded at 2 min,"[3]; water, concentrated hcl, 0.2 ml concentrated hydrochloric acid, warming (not reflux) for 2 minutes, read-out: decomposed to 10,11-dihydro-10-oxodibenz[b,f]oxepin by GC analysis",87.2%
same,degraded at 2 min,"[3]; water, concentrated hcl, 2 min, ambient temperature, 2.0 ml stock + 0.2 ml concentrated hydrochloric acid, product 10,11-dihydro-10-oxodibenz[b,f]oxepin, read-out: % Increase in decomposition product",0.35%
same,degraded at 1 h,"[3]; water, concentrated hcl, 60 min, ambient temperature, 2.0 ml stock + 0.2 ml concentrated hydrochloric acid, product 10,11-dihydro-10-oxodibenz[b,f]oxepin, read-out: % Increase in decomposition product",2.16%
same,degraded at 140 min,"[3]; water, concentrated hcl, 140 min, ambient temperature, 2.0 ml stock + 0.2 ml concentrated hydrochloric acid, product 10,11-dihydro-10-oxodibenz[b,f]oxepin, read-out: % Increase in decomposition product",3%
"CN(C)CCSC1=Cc2ccccc2Oc2ccc(F)cc21 [2-fluoro-11-[β-(dimethylamino)ethylthio]dibenz[b,f]oxepin]",decomposition by GC analysis (in words),[3]; [7],did not decompose
same,visible change of the acidified solution on warming,[3]; [7],remained clear and colorless
same,Activity (% Inhibition of Climbing),[1]; 10 mg/kg,10%
same,Analgesic Activity (%),tail flick in mice; dose 23.9 mg/kg,50%
"CNCCSC1=Cc2ccccc2Oc2ccccc21.O=C(O)C(=O)O [10-[β(methylamino)ethylthio]dibenz[b,f]oxepin oxalate]",ED50,[4],21 mg/kg
same,ED50,"[5]; ip, intraperitoneal dose",3.4 mg/kg
same,ED50,[6],2.3 mg/kg
"CN(C)CCSC1Cc2ccccc2Oc2ccc(Cl)cc21.O=C(O)C(=O)O (stereo not drawn) [2-chloro-10,11-dihydro-11-[β-(dimethylamino)-ethylthio]-dibenz[b,f]oxepin oxalate]",ED50,[4],19.4 mg/kg
same,ED50,"[5]; ip, intraperitoneal dose",3.5 mg/kg
"CNCCSC1=Cc2ccccc2Oc2ccc(F)cc21.O=C(O)/C=C\C(=O)O [2-fluoro-11-[β-(methylamino)ethylthio]dibenz[b,f]oxepin maleate]",ED50,[4],9.9 mg/kg
same,ED50,"[5]; ip, intraperitoneal dose",0.3 mg/kg
same,ED50,[6],2.3 mg/kg
"CN(C)CCSC1=Cc2ccccc2Oc2ccccc21 [10-[β-(dimethylamino)ethylthio]dibenz[b,f]oxepin]",Activity (% Inhibition of Climbing),[1]; 15 mg/kg,20%
same,Analgesic Activity (%),tail flick in mice; dose 25 mg/kg,30%
"CN(C)CCSC1Cc2ccccc2Oc2ccccc21 (stereo not drawn) [10,11-dihydro-10-[β-(dimethylamino)ethylthio[dibenz[b,f]oxepin oxalate]",ED50,[4],7.7 mg/kg
same,ED50,"[5]; ip, intraperitoneal dose",7 mg/kg
"CN(C)CCSC1Cc2ccccc2Oc2ccc(F)cc21.O=C(O)C(=O)O (stereo not drawn) [2-fluoro-10,11-dihydro-11-[β-(dimethylamino)ethylthio]dibenz[b,f]oxepin oxalate]",ED50,[4],9 mg/kg
same,ED50,[5]; oral dose (footnote *),7.6 mg/kg
same,ED50,[6],1.9 mg/kg
"Br.CN(C)CCSC1=Cc2ccccc2Oc2ccc(F)cc21 [2-fluoro-11-[β-(dimethylamino)ethylthio]dibenz[b,f]oxepin hydrobromide]",ED50,[4],9.2 mg/kg
same,ED50,"[5]; ip, intraperitoneal dose",4.3 mg/kg
